# Columns and labels:
# ZEAMX (Corn, Field) = assay: Preemergence herbicidal evaluation; assay type: in vivo, Zea mays; conditions: rated 4-5 weeks after treatment; for ZEAMX rating: preemergence, 0-9 scale
# Summary of the method: (§1)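 Visual 0-9 rating vs control (stand, vigor, malformation, size, chlorosis, overall appearance), scored 4-5 wk after spraying. Seeded soil cups were treated preemergence with compound in aqueous acetone, ~0.0156-0.500 kg/ha equivalent.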
# GALAP (Galium) = assay: Postemergence herbicidal evaluation; assay type: in vivo, Galium aparine; conditions: for herbicidal rating GALAP: postemergence
# Summary of the method: (§2)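 Each compound, dispersed in an acetone/water mix (50/50) carrying 0.5% TWEEN 20, is nozzle-sprayed at 40 psi on approximately two-week-old seedlings at about 0.0156–0.500 kg/ha. Plants are assessed 4–5 weeks afterward on a 0–9 scale relative to control; duplicate tests are averaged.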
# ECHCG (Barnyardgrass) = assay: Postemergence herbicidal evaluation; assay type: in vivo, Echinochloa crus-galli; conditions: for herbicidal rating ECHCG: postemergence
# Summary of the method: as §2
# CYPSE (Flatsedge) = assay: Postemergence weed control under flooded paddy conditions; assay type: in vivo, Cyperus serotinus; conditions: postemergence weeds
# Summary of the method: (§3)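 Herbicidal effect is judged by eye on a 0–9 scale versus control, 3–4 weeks after dosing. Dosing is into flood water kept 1.5–3 cm over the soil, at about 0.0313–0.500 kg/ha in aqueous/acetone 50/50 v/v, on 3–5 cm weeds and 1.5–2.5-leaf rice seedlings.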
# [1] = system: ECHORC (Watergrass (Calif.)); assay: Preemergence weed control under flooded paddy conditions; assay type: in vivo, Echinochloa oryzoides; conditions: rated 3-4 weeks after treatment
# Summary of the method: (§4)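 First, seeds or propagules go into the top 0.5 cm of silt loam; next, water is held 1.5 to 3 cm over the soil; then compound (50/50 acetone/water) is pipetted into it at about 0.0313 to 0.500 kg/ha; finally plants are rated visually 0-9 after three to four weeks.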
# ABUTH (Velvetleaf) = assay: Postemergence herbicidal evaluation; assay type: in vivo, Abutilon theophrasti; conditions: for herbicidal rating ABUTH: postemergence
# Summary of the method: as §2
# CYPIR (Rice Flatsedge) [2] = assay: Preemergence weed control under flooded paddy conditions; assay type: in vivo, Cyperus iria; conditions: rated 3-4 weeks after treatment
# Summary of the method: as §4
# CYPIR (Rice Flatsedge) [3] = assay: Postemergence weed control under flooded paddy conditions; assay type: in vivo, Cyperus iria; conditions: postemergence weeds
# Summary of the method: as §3
# [4] = system: TRZAWR (Wheat, Winter, cv Riband); assay: Preemergence herbicidal evaluation; assay type: in vivo, Triticum aestivum; conditions: rated 4-5 weeks after treatment; for TRZAWR rating: preemergence, 0-9 scale
# Summary of the method: as §1
# MOOVA (Monochoria) = assay: Preemergence weed control under flooded paddy conditions; assay type: in vivo, Monochoria vaginalis; conditions: rated 3-4 weeks after treatment
# Summary of the method: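 Greenhouse paddy assay. Acetone/water (50/50 v/v) solutions dosed into flood water, equivalent to about 0.0313 to 0.500 kg/ha active ingredient, over seeds planted 0.5 cm deep in silt loam. Score: 0-9 visual, based on stand, vigor, malformation, size and chlorosis, 3 to 4 weeks after treatment.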
# [5] = system: SAGPY (Arrowhead (Pygmaea)); assay: Postemergence weed control under flooded paddy conditions; assay type: in vivo, Sagittaria pygmaea; conditions: postemergence weeds
# Summary of the method: as §3
# [6] = system: IPOHE (Morningglory, Ivyleaf); assay: Preemergence herbicidal evaluation; assay type: in vivo, Ipomoea hederacea; conditions: rated 4-5 weeks after treatment; for IPOHE rating: preemergence, 0-9 scale
# Summary of the method: as §1
# ORYSAT (Rice, Tebonnet) = assay: Postemergence herbicidal evaluation; assay type: in vivo, Oryza sativa, (L.) Tebonnet; conditions: for herbicidal rating ORYSAT: postemergence
# Summary of the method: as §2
# SETVI (Foxtail, Green) = assay: Postemergence herbicidal evaluation; assay type: in vivo, Setaria viridis; conditions: for herbicidal rating SETVI: postemergence
# Summary of the method: as §2
# [7] = Rate 0.0313 kg/ha, rated 3 to 4 weeks after treatment
# [8] = Rate 0.0625 kg/ha, rated 3 to 4 weeks after treatment
# [9] = Rate 0.1250 kg/ha, rated 3 to 4 weeks after treatment
# [10] = Rate 0.2500 kg/ha, rated 3 to 4 weeks after treatment
# [11] = Rate 0.5000 kg/ha, rated 3 to 4 weeks after treatment
# [12] = rate 0.0625 kg/ha, 3-4 weeks after treatment
# [13] = rate 0.1250 kg/ha, 3-4 weeks after treatment
# [14] = rate 0.2500 kg/ha, 3-4 weeks after treatment
compound,measurement,setting,value
"CCOC(=O)CN1C(=O)C(CC(=O)NS(=O)(=O)c2ccccc2)SC1=Nc1cc(-n2c(=O)cc(C(F)(F)F)n(C)c2=O)c(F)cc1Cl (stereo not shown) [Compound 100, Ethyl 2-{{2-chloro-5-[3,6-dihydro-3-methyl-2,6-dioxo-4-(trifluoromethyl)-1(2H)-pyrimidinyl]-4-fluorophenyl}imino}-4-oxo-5-{[(phenylsulfonyl)-carbamoyl]methyl]-3-thiazolidineacetate]",ZEAMX rating,"ZEAMX (Corn, Field); 0.0313 kg/ha",0.0
same,ZEAMX rating,"ZEAMX (Corn, Field); 0.0625 kg/ha",0.0
same,ZEAMX rating,"ZEAMX (Corn, Field); 0.1250 kg/ha",0.0
same,ZEAMX rating,"ZEAMX (Corn, Field); 0.2500 kg/ha",0.0
same,ZEAMX rating,"ZEAMX (Corn, Field); 0.5000 kg/ha",1.0
same,herbicidal rating GALAP,GALAP (Galium); rate 0.0156 kg/ha,1.0
same,herbicidal rating GALAP,GALAP (Galium); rate 0.0313 kg/ha,2.0
same,herbicidal rating GALAP,GALAP (Galium); rate 0.0625 kg/ha,3.0
same,herbicidal rating GALAP,GALAP (Galium); rate 0.1250 kg/ha,3.0
same,herbicidal rating ECHCG,ECHCG (Barnyardgrass); rate 0.0156 kg/ha,1.0
same,herbicidal rating ECHCG,ECHCG (Barnyardgrass); rate 0.0313 kg/ha,3.0
same,herbicidal rating ECHCG,ECHCG (Barnyardgrass); rate 0.0625 kg/ha,4.0
same,herbicidal rating ECHCG,ECHCG (Barnyardgrass); rate 0.1250 kg/ha,7.0
same,Herbicidal rating CYPSE,CYPSE (Flatsedge); [7],0.0
same,Herbicidal rating CYPSE,CYPSE (Flatsedge); [8],0.0
same,Herbicidal rating CYPSE,CYPSE (Flatsedge); [9],0.0
same,Herbicidal rating CYPSE,CYPSE (Flatsedge); [10],0.0
same,ECHORC herbicidal effect rating,[1]; 0.0313 kg/ha,0.0
same,ECHORC herbicidal effect rating,[1]; 0.0625 kg/ha,0.0
same,ECHORC herbicidal effect rating,[1]; 0.1250 kg/ha,0.0
same,ECHORC herbicidal effect rating,[1]; 0.2500 kg/ha,3.0
same,ECHORC herbicidal effect rating,[1]; 0.5000 kg/ha,4.0
same,herbicidal rating ABUTH,ABUTH (Velvetleaf); rate 0.0156 kg/ha,9.0
same,herbicidal rating ABUTH,ABUTH (Velvetleaf); rate 0.0313 kg/ha,9.0
same,herbicidal rating ABUTH,ABUTH (Velvetleaf); rate 0.0625 kg/ha,9.0
same,herbicidal rating ABUTH,ABUTH (Velvetleaf); rate 0.1250 kg/ha,9.0
same,CYPIR herbicidal effect rating,CYPIR (Rice Flatsedge) [2]; 0.0313 kg/ha,0.0
same,CYPIR herbicidal effect rating,CYPIR (Rice Flatsedge) [2]; 0.0625 kg/ha,0.0
same,CYPIR herbicidal effect rating,CYPIR (Rice Flatsedge) [2]; 0.1250 kg/ha,0.0
same,CYPIR herbicidal effect rating,CYPIR (Rice Flatsedge) [2]; 0.2500 kg/ha,4.0
same,CYPIR herbicidal effect rating,CYPIR (Rice Flatsedge) [2]; 0.5000 kg/ha,9.0
same,Herbicidal rating CYPIR,CYPIR (Rice Flatsedge) [3]; [7],0.0
same,Herbicidal rating CYPIR,CYPIR (Rice Flatsedge) [3]; [8],0.0
same,Herbicidal rating CYPIR,CYPIR (Rice Flatsedge) [3]; [9],0.0
same,Herbicidal rating CYPIR,CYPIR (Rice Flatsedge) [3]; [10],4.0
same,Herbicidal rating CYPIR,CYPIR (Rice Flatsedge) [3]; [11],9.0
same,TRZAWR rating,[4]; 0.0313 kg/ha,0.0
same,TRZAWR rating,[4]; 0.0625 kg/ha,0.0
same,TRZAWR rating,[4]; 0.1250 kg/ha,1.0
same,TRZAWR rating,[4]; 0.2500 kg/ha,0.0
same,TRZAWR rating,[4]; 0.5000 kg/ha,1.0
same,MOOVA herbicidal effect rating,MOOVA (Monochoria); 0.0313 kg/ha,9.0
same,MOOVA herbicidal effect rating,MOOVA (Monochoria); 0.0625 kg/ha,9.0
same,MOOVA herbicidal effect rating,MOOVA (Monochoria); 0.1250 kg/ha,9.0
same,MOOVA herbicidal effect rating,MOOVA (Monochoria); 0.2500 kg/ha,9.0
same,MOOVA herbicidal effect rating,MOOVA (Monochoria); 0.5000 kg/ha,9.0
same,Herbicidal rating SAGPY,[5]; [7],0.0
same,Herbicidal rating SAGPY,[5]; [8],0.0
same,Herbicidal rating SAGPY,[5]; [9],0.0
same,Herbicidal rating SAGPY,[5]; [10],4.0
same,Herbicidal rating SAGPY,[5]; [11],6.0
same,IPOHE rating,[6]; 0.0313 kg/ha,1.0
same,IPOHE rating,[6]; 0.0625 kg/ha,0.0
same,IPOHE rating,[6]; 0.1250 kg/ha,0.0
same,IPOHE rating,[6]; 0.2500 kg/ha,2.0
same,IPOHE rating,[6]; 0.5000 kg/ha,5.0
same,herbicidal rating ORYSAT,"ORYSAT (Rice, Tebonnet); rate 0.0156 kg/ha",3.0
same,herbicidal rating ORYSAT,"ORYSAT (Rice, Tebonnet); rate 0.0313 kg/ha",3.5
same,herbicidal rating ORYSAT,"ORYSAT (Rice, Tebonnet); rate 0.0625 kg/ha",3.5
same,herbicidal rating ORYSAT,"ORYSAT (Rice, Tebonnet); rate 0.1250 kg/ha",3.5
same,herbicidal rating SETVI,"SETVI (Foxtail, Green); rate 0.0156 kg/ha",2.0
same,herbicidal rating SETVI,"SETVI (Foxtail, Green); rate 0.0313 kg/ha",9.0
same,herbicidal rating SETVI,"SETVI (Foxtail, Green); rate 0.0625 kg/ha",6.0
same,herbicidal rating SETVI,"SETVI (Foxtail, Green); rate 0.1250 kg/ha",7.0
"Cn1c(C(F)(F)F)cc(=O)n(-c2cc(N=C3SCC(=O)N3CCC(=O)O)c(Cl)cc2F)c1=O [Compound 31, 2-{{2-Chloro-5-[3,6-dihydro-3-methyl-2,6-dioxo-4-(trifluoromethyl)-1(2H)-pyrimidinyl]-4-fluoro-phenyl}imino}-4-oxo-3-thiazolidinepropionic acid]",Preemergence herbicidal rating ZEAMX,"ZEAMX (Corn, Field); rate 0.0625 kg/ha",3.0
same,Preemergence herbicidal rating ZEAMX,"ZEAMX (Corn, Field); rate 0.1250 kg/ha",7.0
same,Preemergence herbicidal rating ZEAMX,"ZEAMX (Corn, Field); rate 0.2500 kg/ha",9.0
same,Postemergence herbicidal rating GALAP,GALAP (Galium); Rate 0.0158 kg/ha,0.0
same,Postemergence herbicidal rating GALAP,GALAP (Galium); Rate 0.0315 kg/ha,1.0
same,Postemergence herbicidal rating GALAP,GALAP (Galium); Rate 0.0630 kg/ha,3.0
same,Postemergence herbicidal rating ECHCG,ECHCG (Barnyardgrass); Rate 0.0158 kg/ha,0.0
same,Postemergence herbicidal rating ECHCG,ECHCG (Barnyardgrass); Rate 0.0315 kg/ha,0.0
same,Postemergence herbicidal rating ECHCG,ECHCG (Barnyardgrass); Rate 0.0630 kg/ha,5.0
same,Herbicidal rating CYPSE,CYPSE (Flatsedge); [12],0.0
same,Herbicidal rating CYPSE,CYPSE (Flatsedge); [13],0.0
same,Herbicidal rating CYPSE,CYPSE (Flatsedge); [14],0.0
same,Herbicidal rating ECHORC,[1]; 0.0625 kg/ha,1.0
same,Herbicidal rating ECHORC,[1]; 0.1250 kg/ha,2.0
same,Herbicidal rating ECHORC,[1]; 0.2500 kg/ha,5.0
same,Postemergence herbicidal rating ABUTH,ABUTH (Velvetleaf); Rate 0.0158 kg/ha,9.0
same,Postemergence herbicidal rating ABUTH,ABUTH (Velvetleaf); Rate 0.0315 kg/ha,9.0
same,Postemergence herbicidal rating ABUTH,ABUTH (Velvetleaf); Rate 0.0630 kg/ha,9.0
same,Herbicidal rating CYPIR,CYPIR (Rice Flatsedge) [2]; 0.0625 kg/ha,0.0
same,Herbicidal rating CYPIR,CYPIR (Rice Flatsedge) [2]; 0.1250 kg/ha,0.0
same,Herbicidal rating CYPIR,CYPIR (Rice Flatsedge) [2]; 0.2500 kg/ha,2.5
same,Herbicidal rating CYPIR,CYPIR (Rice Flatsedge) [3]; [12],0.0
same,Herbicidal rating CYPIR,CYPIR (Rice Flatsedge) [3]; [13],0.0
same,Herbicidal rating CYPIR,CYPIR (Rice Flatsedge) [3]; [14],2.5
same,Preemergence herbicidal rating TRZAWR,[4]; rate 0.0625 kg/ha,0.0
same,Preemergence herbicidal rating TRZAWR,[4]; rate 0.1250 kg/ha,3.0
same,Preemergence herbicidal rating TRZAWR,[4]; rate 0.2500 kg/ha,7.0
same,Herbicidal rating MOOVA,MOOVA (Monochoria); 0.0625 kg/ha,0.0
same,Herbicidal rating MOOVA,MOOVA (Monochoria); 0.1250 kg/ha,0.0
same,Herbicidal rating MOOVA,MOOVA (Monochoria); 0.2500 kg/ha,2.5
same,Herbicidal rating SAGPY,[5]; [12],0.0
same,Herbicidal rating SAGPY,[5]; [13],0.0
same,Herbicidal rating SAGPY,[5]; [14],0.0
same,Preemergence herbicidal rating IPOHE,[6]; rate 0.0625 kg/ha,0.0
same,Preemergence herbicidal rating IPOHE,[6]; rate 0.1250 kg/ha,5.0
same,Preemergence herbicidal rating IPOHE,[6]; rate 0.2500 kg/ha,9.0
same,Postemergence herbicidal rating ORYSAT,"ORYSAT (Rice, Tebonnet); Rate 0.0158 kg/ha",3.5
same,Postemergence herbicidal rating ORYSAT,"ORYSAT (Rice, Tebonnet); Rate 0.0315 kg/ha",4.0
same,Postemergence herbicidal rating ORYSAT,"ORYSAT (Rice, Tebonnet); Rate 0.0630 kg/ha",5.5
same,Postemergence herbicidal rating SETVI,"SETVI (Foxtail, Green); Rate 0.0158 kg/ha",0.0
same,Postemergence herbicidal rating SETVI,"SETVI (Foxtail, Green); Rate 0.0315 kg/ha",0.0
same,Postemergence herbicidal rating SETVI,"SETVI (Foxtail, Green); Rate 0.0630 kg/ha",7.0

# Reference: US20020137929A1, “1 - (3-heterocyclylphenyl) isothiourea, -isourea, -guanidine and -amidine herbicidal agents” (Intellectual Property Department, BASF Aktiengesellschaft, priority 1998, published 2002)
